From patent US20150175655A1 (priority 2012, published 2015)
Where two headings read alike, the source gives them in different places.

What was measured:
NS3 genotype 1b protease = biological target: T1, NS3 genotype 1b protease (Hepatitis C virus genotype 1b, UniProt Q9WMX2, E1202G); assay: Ki determination, NS3 protease genotype 1b (fluorogenic depsipeptide substrate); format: biochemical
T1 construct: Purified NS3 protease domain (amino acids 1-181) of the genotype 1b and 3a virus were generated as above; K3 hexahistidine tag (N); rTEV protease cleavage site (N); made in house; host or cells: E. coli BL21AI, pET28 vector p28-N6H-Tev-NS3(181)1b
Excerpt: The coding sequence of the genotype 1b (con-1 strain) HCV NS3 protease domain was PCR amplified from a plasmid encoding the I389luc-ubi-neo/NS3-3′/ET replicon (Reblikon, Mainz, Germany). The 5′-PCR primer was designed to encode an N-terminal K3 hexahistidine tag and to insert an in-frame recombinant Tobacco Etch virus (rTEV) protease cleavage site into the NS3 coding sequence. The resulting DNA fragment was cloned into the pET28 protein expression vector (Invitrogen, Carlsbad, Calif.) yielding the p28-N6H-Tev-NS3(181)1b.
BL21AI bacteria (Invitrogen, Carlsbad, Calif.) were transformed with genotype 1b or 3 NS3 expression vectors and used to inoculate a 20 L fermentation vessel (Sartorius BBI System Inc., Bethlehem, Pa.), containing 18 L of fresh 2YT medium supplemented with 50 μg/mL kanamycin. When cell densities reached an OD600 of 1, the temperature of the cultures was reduced from 37° C. to 28° C. and induction was immediately initiated by the addition of 30 μM ZnSO4, 14 mM L-arabinose and 1 mM Isopropyl β-D-thiogalactoside (IPTG) final concentrations. Cells were harvested by centrifugation four hours post-induction and were stored as frozen pellets at −80° C. prior to NS3 protein purification.
Cell pellets were thawed and resuspended at 10 mL/g cells in lysis buffer containing 50 mM tris pH 7.6, 300 mM NaCl, 0.1% 3-[(3-cholamidopropyl)dimethylammonio]-1-propanesulfonate (CHAPS), 5% glycerol, and 2 mM β-mercaptoethanol. Cell suspensions were then sonicated, filtered through cheesecloth, and passed three times through a microfluidizer at 18,000 pounds/in^2. The resulting lysates were centrifuged at 15500 rpm for 45 minutes and supernatants were loaded onto a HisTrap HP column (GE Lifesciences) pre-equilibrated with five volumes of Ni buffer A (50 mM tris pH 7.6, 300 mM NaCl, 0.1% CHAPS, 5% glycerol, 2 mM β-mercaptoethanol, 50 mM imidazole-HCl). Proteins were eluted with a 0-100% gradient of Ni buffer A plus 500 mM imidazole-HCl and fractions were collected and pooled. The HisTrap pool was diluted 1:10 with SP-A buffer (50 mM tris pH 7.0, 10% glycerol, 2 mM dithiothreitol (DTT)) and loaded onto a HiTrap SP-HP column (GE Lifesciences) equilibrated with SP-A buffer. NS3 protease was eluted with a 0-100% SP-B buffer (SP-A buffer plus 1 M NaCl) gradient. Concentrated pools of NS3-containing SP fractions were aliquoted, snap frozen in liquid nitrogen and stored at −80° C.
Purified NS3 protease domain (amino acids 1-181) of the genotype 1b and 3a virus were generated as above.
Reactions were run at room temperature in buffer consisting of 50 mM HEPES, 40% glycerol, 0.05% Triton X-100, 10 mM DTT, and 10% DMSO. The final assay solutions contained 50 pM NS3 genotype 1b protease or 200 pM genotype 3a protease, 20 μM NS4A peptide, and 4 μM substrate (genotype 1 b) or 2 μM substrate (genotype 3a). Inhibitor concentrations varied from 100 nM to 5 pM in 3-fold dilutions, and no-inhibitor controls were included.
Compound dilutions were made in DMSO at 20× final concentration. Reaction mixtures were prepared in 96-well assay plates. A solution of enzyme and NS4A peptide in assay buffer (25 μL volume with both reagents at 4× final concentration) was mixed with 45 μL assay buffer and 5 μL of either inhibitor or DMSO, and pre-incubated at room temperature for 1 hour. The reaction was started by addition of 25 μL substrate solution at 4× final concentration. Plates were mixed vigorously for 5-10 seconds and reactions were allowed to proceed for 90 minutes. fluorescence was measured every 30 s between 90 and 120 minutes reaction time using a Tecan InfiniTe M1000 or PerkinElmer Envision multimode plate reader with an excitation wavelength of 340 nm and an emission wavelength of 490 nm.
To determine the K, rates were plotted as a function of inhibitor concentration, and the data were fit with equation 1 (Morrison, J. F., Biochimica et Biophysica Acta 1969, 185, 269-286) to calculate Ki^app using GraphPad Prism 5.

[1] = test system: genotype 1a (H77) wild-type transient HCV replicon in Huh-7-derived cells; assay: Transient-transfected HCV replicon EC50, genotype 1a wild type; format: cell-based; conditions: Hepatitis C virus; transient-transfected replicon genotype 1a wild type, 72 h; read-out: EC50 1A WT
[2] = test system: genotype 1a transient HCV replicon, NS3/4a protease inhibitor resistant variant R155K, in Huh-7-derived cells; assay: Transient-transfected HCV replicon EC50, genotype 1a R155K; format: cell-based; conditions: Hepatitis C virus, 72 h, read-out: EC50 1A R155K
[3] = test system: genotype 1b (Con1) wild-type transient HCV replicon in Huh-7-derived cells; assay: Transient-transfected HCV replicon EC50, genotype 1b wild type; format: cell-based; conditions: Hepatitis C virus; transient-transfected replicon genotype 1b wild type, 72 h; read-out: EC50 1B WT
[4] = test system: genotype 1b transient HCV replicon, NS3/4a protease inhibitor resistant variant D168A, in Huh-7-derived cells; assay: Transient-transfected HCV replicon EC50, genotype 1b D168A; format: cell-based; conditions: Hepatitis C virus, 72 h, read-out: EC50 1B D168A
[5] = rcm bond, Zhan 1B, DCE
NS3 genotype 3a protease = biological target: T2, NS3 genotype 3a protease (UniProt Q81258); assay: Ki determination, NS3 protease genotype 3a (fluorogenic depsipeptide substrate); format: biochemical, hepatitis C virus; conditions: 200 pM enzyme, 20 μM NS4A peptide, 2 μM substrate, read-out: Ki 3A
T2 construct: Purified NS3 protease domain (amino acids 1-181) of the genotype 1b and 3a virus were generated as above; fused on or other part: N-terminal hexahistidine tag and rTEV protease cleavage site (vector p28-N6H-Tev-NS3(181)3)
T2 sequence (Q81258 1033-1663): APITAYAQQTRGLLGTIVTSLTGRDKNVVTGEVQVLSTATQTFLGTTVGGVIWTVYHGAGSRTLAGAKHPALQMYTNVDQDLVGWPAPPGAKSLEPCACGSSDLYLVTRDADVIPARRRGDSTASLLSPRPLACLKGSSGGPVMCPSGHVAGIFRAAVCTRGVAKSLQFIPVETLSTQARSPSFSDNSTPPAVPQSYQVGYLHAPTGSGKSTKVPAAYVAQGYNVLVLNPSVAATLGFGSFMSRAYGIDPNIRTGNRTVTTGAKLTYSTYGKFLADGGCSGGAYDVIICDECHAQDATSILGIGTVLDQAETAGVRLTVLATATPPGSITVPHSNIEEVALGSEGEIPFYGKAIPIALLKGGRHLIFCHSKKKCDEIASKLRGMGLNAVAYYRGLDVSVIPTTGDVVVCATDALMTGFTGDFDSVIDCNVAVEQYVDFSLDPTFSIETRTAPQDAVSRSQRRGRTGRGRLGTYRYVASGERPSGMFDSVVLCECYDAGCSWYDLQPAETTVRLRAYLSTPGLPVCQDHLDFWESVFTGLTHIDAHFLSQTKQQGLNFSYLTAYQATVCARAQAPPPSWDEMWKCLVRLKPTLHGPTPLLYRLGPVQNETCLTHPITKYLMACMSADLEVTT
Summary of the method: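 Refolded His-tagged NS3 protease domain (aa 1-181, genotype 3a) at 200 pM with 20 μM NS4A peptide was pre-incubated 1 h at RT with inhibitor (100 nM–5 pM, 3-fold), then 2 μM FRET depsipeptide substrate was added in HEPES/40% glycerol/10% DMSO buffer. Steady-state rates over 90-120 min (ex 340/em 490 nm) versus inhibitor concentration gave Ki.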

CC[C@@H]1[C@@H]2CN(C(=O)[C@H](C3CCCCC3)NC(=O)O[C@@H]3C[C@H]3CCCCCc3nc4ccc(OC)cc4nc3O2)[C@@H]1C(=O)N[C@]1(C(=O)NS(=O)(=O)C2(C)CC2)C[C@H]1C(F)F [Example 16, (1aR,5S,8S,9S,10R,22aR)-5-cyclohexyl-N-[(1R,2R)-2-(difluoromethyl)-1-{[(1-methylcyclopropyl)sulfonyl]carbamoyl}cyclopropyl]-9-ethyl-14-methoxy-3,6-dioxo-1,1a,3,4,5,6,9,10,18,19,20,21,22,22a-tetradecahydro-8H-7,10-methanocyclopropa[18,19][1,10,3,6]dioxadiazacyclononadecino[11,12-b]quinoxaline-8-carboxamide]
Ki (NS3 genotype 1b protease): 0.09 nM | EC50 [1]: 9.4 nM | EC50 [2]: 22 nM | EC50 [3]: 5.8 nM | EC50 [4]: 61 nM

CCC[C@@H]1[C@@H]2CN(C(=O)[C@H](C(C)(C)C)NC(=O)O[C@@H]3C[C@H]3CCCC=Cc3nc4ccc(OC)cc4nc3O2)[C@@H]1C(=O)OC(C)(C)C
ring closure, yield of all isomers ([5]; from C=CCCC[C@@H]1C[C@H]1OC(=O)N[C@H](C(=O)N1C[C@H](Oc2nc3cc(OC)ccc3nc2C=C)[C@@H](CCC)[C@H]1C(=O)OC(C)(C)C)C(C)(C)C, 5.0 mM, 100.0 °C, 1.0 h): 80.7%

CC[C@@H]1[C@@H]2CN(C(=O)[C@H](C(C)(C)C)NC(=O)O[C@@H]3[C@H]4CC[C@H](C4)[C@H]3CCCC=Cc3nc4ccc(OC)cc4nc3O2)[C@@H]1C(=O)OC(C)(C)C
ring closure, yield of all isomers ([5]; from C=CCCCC1C2CCC(C2)C1OC(=O)N[C@H](C(=O)N1C[C@H](Oc2nc3cc(OC)ccc3nc2C=C)[C@@H](CC)[C@H]1C(=O)OC(C)(C)C)C(C)(C)C, 4.0 mM, 100.0 °C, 0.75 h): 45.2%

CC[C@@H]1[C@@H]2CN(C(=O)[C@H](C(C)(C)C)NC(=O)O[C@@H]3C[C@H]3CC/C=C/C(F)(F)c3nc4ccc(C#N)cc4nc3O2)[C@@H]1C(=O)N[C@]1(C(=O)NS(=O)(=O)C2(C)CC2)C[C@H]1C(F)F [Example 84, (1aR,5S,8S,9S,10R,19E,22aR)-5-tert-butyl-14-cyano-N-[(1R,2R)-2-(difluoromethyl)-1-{[(1-methylcyclopropyl)sulfonyl]carbamoyl}cyclopropyl]-9-ethyl-18,18-difluoro-3,6-dioxo-1,1a,3,4,5,6,9,10,18,21,22,22a-dodecahydro-8H-7,10-methanocyclopropa[18,19][1,10,3,6]dioxadiazacyclononadecino[11,12-b]quinoxaline-8-carboxamide]
Ki (NS3 genotype 1b protease): 0.04 nM | Ki (NS3 genotype 3a protease): 0.08 nM

COC(=O)[C@@H]1[C@H](C2CC2)[C@@H]2CN1C(=O)[C@H](C(C)(C)C)NC(=O)O[C@@H]1C[C@H]1CCCC=Cc1nc3ccc(OC)cc3nc1O2
ring closure, yield of all isomers ([5]; from C=CCCC[C@@H]1C[C@H]1OC(=O)N[C@H](C(=O)N1C[C@H](Oc2nc3cc(OC)ccc3nc2C=C)[C@@H](C2CC2)[C@H]1C(=O)OC)C(C)(C)C, 4.96 mM, 83.0 °C, 0.83 h): 39%

COc1ccc2nc3c(nc2c1)O[C@H]1CN(C(=O)[C@H](C(C)(C)C)NC(=O)O[C@@H]2C[C@H]2CCCCC3)[C@H](C(=O)N[C@]2(C(=O)NS(=O)(=O)C3(C)CC3)C[C@H]2C(F)F)[C@@H]1C [Example 18, (1aR,5S,8S,9S,10R,22aR)-5-tert-butyl-N-[(1R,2R)-2-(difluoromethyl)-1-{[(1-methylcyclopropyl)sulfonyl]carbamoyl}cyclopropyl]-14-methoxy-9-methyl-3,6-dioxo-1,1a,3,4,5,6,9,10,18,19,20,21,22,22a-tetradecahydro-8H-7,10-methanocyclopropa[18,19][1,10,3,6]dioxadiazacyclononadecino[11,12-b]quinoxaline-8-carboxamide]
EC50 [1]: 2.3 nM | EC50 [3]: 1.2 nM | EC50 [4]: 24 nM

CC[C@@H]1[C@@H]2CN(C(=O)[C@H](C(C)(C)C)NC(=O)O[C@]3(C)CCC[C@H]3CCCCCc3nc4ccc(OC)cc4nc3O2)[C@@H]1C(=O)N[C@]1(C(=O)NS(=O)(=O)C2(C)CC2)C[C@H]1C(F)F [Example 39, (3aR,7S,10S,11S,12R,24aR)-7-tert-butyl-N-[(1R,2R)-2-(difluoromethyl)-1-{[(1-methylcyclopropyl)sulfonyl]carbamoyl}cyclopropyl]-11-ethyl-16-methoxy-3a-methyl-5,8-dioxo-1,2,3,3a,5,6,7,8,11,12,20,21,22,23,24,24a-hexadecahydro-10H-9,12-methanocyclopenta[18,19][1,10,3,6]dioxadiazacyclononadecino[11,12-b]quinoxaline-10-carboxamide]
Ki (NS3 genotype 1b protease): 0.08 nM
